# Values of other authors in US6004969A (National Science Council, priority 1997, dated 1999).
# Columns and labels:
# animal paw swelling = details: topical use; words
# [1] = oral administration; words
Structure (SMILES),inhibition of animal paw swelling (animal paw swelling),first pass effect [1],gastrointestinal absorption [1]
CC1(C)[C@@H](O)CC[C@]2(C)[C@H]3C(=O)C=C4[C@@H]5C[C@@](C)(C(=O)O)CC[C@]5(C)CC[C@@]4(C)[C@]3(C)CC[C@@H]12 [glycyrrhetinic acid],can inhibit animal paw swelling,,
"CO[C@]12CC[C@@]3(C[C@@H]1[C@](C)(O)C(C)(C)C)[C@H]1Cc4ccc(O)c5c4[C@@]3(CCN1CC1CC1)[C@H]2O5 [Buprenorphine, 21-cyclo-propylmethyl-7-α-[(S)-1-hydroxy-1,2,2-trimethylpropyl]-6,14-endoethano-6,7,8,14-tetrahydroripavine]",,high first pass effect,poor gastrointestinal absorption
CC1(C)[C@@H](O[C@H]2O[C@H](C(=O)O)[C@@H](O)[C@H](O)[C@H]2O[C@@H]2O[C@H](C(=O)O)[C@@H](O)[C@H](O)[C@H]2O)CC[C@]2(C)[C@H]3C(=O)C=C4[C@@H]5C[C@@](C)(C(=O)O)CC[C@]5(C)CC[C@@]4(C)[C@]3(C)CC[C@@H]12 [glycyrrhizic acid],can inhibit animal paw swelling,,
